Results on 14 molecules are retold here after patent publication US20260035359A1, “HERBICIDAL IMIDAZOLE COMPOUNDS” (SYNGENTA CROP PROTECTION AG, priority 2022, published 2026).

Holding throughout (format): in vivo
Assay [1] relates to Echinochloa crus-gali (ECHCG). The assay can be described thus: Pre-emergence herbicidal glasshouse test. As to conditions: 250 g/ha, sprayed after one day cultivation, evaluated after 13 days. Here is the method: (§1) Seeds of a variety of test species are sown in standard soil in pots Amaranthus pa/meri (AMAPA), Amaranthus retoflexus (AMARE), Echinochloa crus-gali (ECHCG), Ipomoea hederacea (IPOHE), Setaria faberi (SETFA). After cultivation for one day (pre-emergence) or after 8 days cultivation (post-emergence) under controlled conditions in a glasshouse (at 24/16° C., day/night; 14 hours light; 65% humidity), the plants are sprayed with an aqueous spray solution derived from the formulation of the technical active ingredient in acetone/water (50:50) solution containing 0.5% Tween 20 (polyoxyethelyene sorbitan monolaurate, CAS RN 9005-64-5). Compounds are applied at 250 g/ha unless otherwise stated. The test plants are then grown in a glasshouse under controlled conditions in a glasshouse (at 24/16° C., day/night; 14 hours light; 65% humidity) and watered twice daily. After 13 days for pre and post-emergence, the test is evaluated for the percentage damage caused to the plant. The biological activities are shown in the following table on a five-point scale (5=81-100%; 4=61-80%; 3=41-60%; 2=21-40%; 1=0-20%).

Assay [2] has as its system Ipomoea hederacea (IPOHE). The assay can be described thus: Pre-emergence herbicidal glasshouse test. The settings on record: 250 g/ha, sprayed after one day cultivation, evaluated after 13 days. As to the method:
as §1

The test system of assay [3] is Amaranthus pa/meri (AMAPA). In words: Pre-emergence herbicidal glasshouse test. As to conditions: 250 g/ha, sprayed after one day cultivation, evaluated after 13 days. Here is the method: as §1
In assay [4] the test system is Amaranthus retoflexus (AMARE). The assay can be described thus: Pre-emergence herbicidal glasshouse test. The settings on record: 250 g/ha, sprayed after one day cultivation, evaluated after 13 days. Here is the method: as §1
Assay [5] has as its system Echinochloa crus-gali (ECHCG). The assay can be described thus: Post-emergence herbicidal glasshouse test. The settings on record: 250 g/ha, sprayed after 8 days cultivation, evaluated after 13 days. Here is the method:
as §1

Assay [6] relates to Ipomoea hederacea (IPOHE). The assay can be described thus: Post-emergence herbicidal glasshouse test. As to conditions: 250 g/ha, sprayed after 8 days cultivation, evaluated after 13 days. Here is the method: as §1
Assay [7] deals with Amaranthus pa/meri (AMAPA). The assay can be described thus: Post-emergence herbicidal glasshouse test. The settings on record: 250 g/ha, sprayed after 8 days cultivation, evaluated after 13 days. As to the method:
as §1

The subject of assay [8] is Amaranthus retoflexus (AMARE). The assay can be described thus: Post-emergence herbicidal glasshouse test. The settings on record: 250 g/ha, sprayed after 8 days cultivation, evaluated after 13 days. Here is the method: as §1

On to `ON=CCCc1nc(C(F)(F)F)cn1Cc1ncc(Cl)cn1` (single isomer, unassigned) [Compound 1.005], for which the “percentage damage caused to the plant, ECHCG” value in assay [1] and in assay [5] was 1 (1=0-20%) in each case. The entries for the “percentage damage caused to the plant, IPOHE” value in assay [2] and in assay [6] were 1 (1=0-20%) and 2 (2=21-40%), respectively. Besides, the “percentage damage caused to the plant, AMAPA” value in assay [3] is given as 1 (1=0-20%); in assay [7] it was 3 (3=41-60%). The “percentage damage caused to the plant, AMARE” value is 1 (1=0-20%) in assay [4] and 3 (3=41-60%) in assay [8].

Regarding `CCCCc1nc(I)c(I)n1Cc1ncc(Cl)cn1` [Compound 1.078], the “percentage damage caused to the plant, ECHCG” value in assay [1] and in assay [5] was 1 (1=0-20%) each time. Moreover, the “percentage damage caused to the plant, IPOHE” value in assay [2] and in assay [6] was 1 (1=0-20%) each time. Also, the entries for the “percentage damage caused to the plant, AMAPA” value in assay [3] and in assay [7] were 1 (1=0-20%) and 2 (2=21-40%), respectively. Further, the “percentage damage caused to the plant, AMARE” value in assay [4] is reported as 1 (1=0-20%); in assay [8] it was 2 (2=21-40%).

Take `CCCCc1nc(C(F)(F)F)cn1Cc1ccc(Cl)cn1` [Compound 1.057]: the “percentage damage caused to the plant, ECHCG” value in assay [1] and in assay [5] was 1 (1=0-20%) throughout. Besides, the figures for the “percentage damage caused to the plant, IPOHE” value in assay [2] and in assay [6] were 1 (1=0-20%) and 2 (2=21-40%), respectively. The “percentage damage caused to the plant, AMAPA” value in assay [3] is recorded as 5 (5=81-100%); in assay [7], 2 (2=21-40%). Moreover, the “percentage damage caused to the plant, AMARE” value in assay [4] and in assay [8] was 3 (3=41-60%) in each case.

Consider `CCCCCc1nc(C(F)(F)F)cn1Cc1ncc(Cl)cn1` [Compound 1.019], for which the results for the “percentage damage caused to the plant, ECHCG” value in assay [1] and in assay [5] were 5 (5=81-100%) and 3 (3=41-60%), respectively. For the same molecule, the “percentage damage caused to the plant, IPOHE” value in assay [2] and in assay [6] was 1 (1=0-20%) throughout. The results for the “percentage damage caused to the plant, AMAPA” value in assay [3] and in assay [7] were 5 (5=81-100%) and 2 (2=21-40%), respectively. Besides, the figures for the “percentage damage caused to the plant, AMARE” value in assay [4] and in assay [8] were 5 (5=81-100%) and 2 (2=21-40%), respectively.

With `N#CCCc1nc(C(F)(F)F)cn1Cc1ncc(Cl)cn1` [Compound 1.029], the “percentage damage caused to the plant, ECHCG” value in assay [1] is 2 (2=21-40%); in assay [5] it was 1 (1=0-20%). The entries for the “percentage damage caused to the plant, IPOHE” value in assay [2] and in assay [6] were 5 (5=81-100%) and 3 (3=41-60%), respectively. Also, the results for the “percentage damage caused to the plant, AMAPA” value in assay [3] and in assay [7] were 5 (5=81-100%) and 4 (4=61-80%), respectively. Also, the “percentage damage caused to the plant, AMARE” value in assay [4] is 5 (5=81-100%); in assay [8], 4 (4=61-80%).

Consider `FC(F)CCc1nc(C(F)(F)F)cn1Cc1ncc(Cl)cn1` [Compound 1.010, 5-chloro-2-[[2-(3,3-difluoropropyl)-4-(trifluoromethyl)-imidazol-1-yl]methyl]-pyrimidine], for which the “percentage damage caused to the plant, ECHCG” value in assay [1] and in assay [5] was 4 (4=61-80%) in each case. For the same molecule, the “percentage damage caused to the plant, IPOHE” value is reported as 5 (5=81-100%) in assay [2] and 4 (4=61-80%) in assay [6]. Moreover, the “percentage damage caused to the plant, AMAPA” value is given as 5 (5=81-100%) in assay [3] and 4 (4=61-80%) in assay [7]. For the same molecule, the figures for the “percentage damage caused to the plant, AMARE” value in assay [4] and in assay [8] were 5 (5=81-100%) and 4 (4=61-80%), respectively.

On to `FC(F)(F)c1cn(Cc2ncc(Cl)cn2)c(CC2CCOCC2)n1` [Compound 1.075], for which the “percentage damage caused to the plant, ECHCG” value in assay [1] and in assay [5] was 4 (4=61-80%) throughout. Besides, the “percentage damage caused to the plant, IPOHE” value was 5 (5=81-100%) in assay [2] and 4 (4=61-80%) in assay [6]. Also, the “percentage damage caused to the plant, AMAPA” value in assay [3] is 5 (5=81-100%); in assay [7] it was 4 (4=61-80%). Besides, the “percentage damage caused to the plant, AMARE” value in assay [4] is 5 (5=81-100%); in assay [8], 4 (4=61-80%).

For `FC(F)(F)c1cn(Cc2ncc(Cl)cn2)c(CCCCl)n1` [Compound 1.051, 5-chloro-2-[[2-(3-chloropropyl)-4-(trifluoromethyl)imidazol-1-yl]methyl]pyrimidine], the “percentage damage caused to the plant, ECHCG” value in assay [1] is listed as 2 (2=21-40%); in assay [5], 4 (4=61-80%). The “percentage damage caused to the plant, IPOHE” value is on record as 5 (5=81-100%) in assay [2] and 4 (4=61-80%) in assay [6]. The “percentage damage caused to the plant, AMAPA” value is listed as 5 (5=81-100%) in assay [3] and 4 (4=61-80%) in assay [7]. Further, the “percentage damage caused to the plant, AMARE” value in assay [4] and in assay [8] was 5 (5=81-100%) throughout.

As for `FC(F)(F)c1cn(Cc2ncc(Cl)cn2)c(CCC=NOCC2CC2)n1` (single isomer, unassigned) [Compound 1.006], the “percentage damage caused to the plant, ECHCG” value in assay [1] and in assay [5] was 1 (1=0-20%) in each case. Moreover, the “percentage damage caused to the plant, IPOHE” value in assay [2] is reported as 1 (1=0-20%); in assay [6] it was 2 (2=21-40%). Further, the “percentage damage caused to the plant, AMAPA” value in assay [3] is given as 2 (2=21-40%); in assay [7], 3 (3=41-60%). Further, the results for the “percentage damage caused to the plant, AMARE” value in assay [4] and in assay [8] were 5 (5=81-100%) and 3 (3=41-60%), respectively.

`CCCCc1nc(I)cn1Cc1ncc(Cl)cn1` [Compound 1.079]: the “percentage damage caused to the plant, ECHCG” value in assay [1] and in assay [5] was 1 (1=0-20%) each time. Further, the “percentage damage caused to the plant, AMAPA” value in assay [3] and in assay [7] was 1 (1=0-20%) throughout. For the same molecule, the “percentage damage caused to the plant, AMARE” value in assay [4] and in assay [8] was 1 (1=0-20%) in each case. Also, the “percentage damage caused to the plant, IPOHE” value in assay [6] is reported as 1 (1=0-20%).

In the case of `CON=CCCc1nc(C(F)(F)F)cn1Cc1ncc(Cl)cn1` (single isomer, unassigned) [Compound 1.007, 3-[1-[(5-chloropyrimidin-2-yl)methyl]-4-(trifluoromethyl)-imidazol-2-yl]-N-methoxy-propan-1-imine], the entries for the “percentage damage caused to the plant, ECHCG” value in assay [1] and in assay [5] were 2 (2=21-40%) and 1 (1=0-20%), respectively. Further, the entries for the “percentage damage caused to the plant, IPOHE” value in assay [2] and in assay [6] were 5 (5=81-100%) and 3 (3=41-60%), respectively. Further, the “percentage damage caused to the plant, AMAPA” value in assay [3] is 5 (5=81-100%); in assay [7], 4 (4=61-80%). Further, the “percentage damage caused to the plant, AMARE” value was 5 (5=81-100%) in assay [4] and 4 (4=61-80%) in assay [8].

In the case of `CCCCCc1nc(C(F)(F)F)cn1Cc1ncc(C#N)cn1` [Compound 1.015], the “percentage damage caused to the plant, ECHCG” value in assay [1] and in assay [5] was 1 (1=0-20%) in each case. For the same molecule, the “percentage damage caused to the plant, IPOHE” value in assay [2] was 2 (2=21-40%); in assay [6], 3 (3=41-60%). For the same molecule, the figures for the “percentage damage caused to the plant, AMAPA” value in assay [3] and in assay [7] were 4 (4=61-80%) and 1 (1=0-20%), respectively. The “percentage damage caused to the plant, AMARE” value in assay [4] is reported as 4 (4=61-80%); in assay [8], 2 (2=21-40%).

With `FC(F)COCCc1nc(C(F)(F)F)cn1Cc1ncc(Cl)cn1` [Compound 1.017], the “percentage damage caused to the plant, ECHCG” value is listed as 5 (5=81-100%) in assay [1] and 3 (3=41-60%) in assay [5]. For the same molecule, the “percentage damage caused to the plant, IPOHE” value was 5 (5=81-100%) in assay [2] and 4 (4=61-80%) in assay [6]. Further, the “percentage damage caused to the plant, AMAPA” value in assay [3] is on record as 5 (5=81-100%); in assay [7] it was 4 (4=61-80%). The “percentage damage caused to the plant, AMARE” value in assay [4] is given as 5 (5=81-100%); in assay [8], 4 (4=61-80%).

As to `FC(F)(F)c1cn(Cc2ncc(Cl)cn2)c(CC2CCOC2)n1` (stereo not drawn) [Compound 1.074], the “percentage damage caused to the plant, ECHCG” value in assay [1] and in assay [5] was 3 (3=41-60%) in each case. Moreover, the figures for the “percentage damage caused to the plant, IPOHE” value in assay [2] and in assay [6] were 5 (5=81-100%) and 4 (4=61-80%), respectively. In addition, the “percentage damage caused to the plant, AMAPA” value is recorded as 5 (5=81-100%) in assay [3] and 4 (4=61-80%) in assay [7]. In addition, the “percentage damage caused to the plant, AMARE” value in assay [4] is recorded as 5 (5=81-100%); in assay [8], 4 (4=61-80%).
